One assay concerns L1210. The assay can be described thus: Cytotoxicity against mouse L1210 cells. It counts as functional, cell-based.
The next assay concerns KB. The assay can be described thus: Cytotoxicity against human KB cells. It counts as functional, cell-based.

Values after ≈ are worked out from the molar mass of the structure shown.

Turning to `COC(CNC(=O)C=C(C)C)C1=CC(=O)c2nccc3c2c1nc1ccccc13` (configuration not stated) [CYSTODYTIN F], the IC50 is 0.068 µg/mL (≈ 0.176 µM) in the assay with L1210 and 0.078 µg/mL (≈ 0.201 µM) in the assay with KB.

For the molecule `C/C=C(\C)C(=O)NCC(O)C1=CC(=O)c2nccc3c2c1nc1ccccc13` (configuration not stated) [CYSTODYTIN E], the figures for the IC50 in the assay on L1210 and in the assay with KB were 1.1 µg/mL (≈ 2.95 µM) and 1.4 µg/mL (≈ 3.75 µM), respectively.

On to `C/C=C(\C)C(=O)NCC(OC)C1=CC(=O)c2nccc3c2c1nc1ccccc13` (configuration not stated) [CYSTODYTIN G], for which the figures for the IC50 with L1210 and in the assay on KB were 0.068 µg/mL (≈ 0.176 µM) and 0.078 µg/mL (≈ 0.201 µM), respectively.

Turning to `CCCCCCCC/C=C/CCCCCCCC(=O)OC(CNC(=O)C=C(C)C)C1=CC(=O)c2nccc3c2c1nc1ccccc13` (configuration not stated) [CYSTODYTIN H], the IC50 in the assay with L1210 worked out at 0.08 µg/mL (≈ 0.125 µM); in the assay on KB, 0.092 µg/mL (≈ 0.144 µM).

As for `CC(C)=CC(=O)NCC(O)C1=CC(=O)c2nccc3c2c1nc1ccccc13` (configuration not stated) [CYSTODYTIN D], the IC50 in the assay with L1210 is 1.1 µg/mL (≈ 2.95 µM); in the assay with KB, 1.4 µg/mL (≈ 3.75 µM).

In the case of `C/C=C(\C)C(=O)NCC(OC(=O)CCCCCCC/C=C/CCCCCCCC)C1=CC(=O)c2nccc3c2c1nc1ccccc13` (configuration not stated) [CYSTODYTIN I], the values for the IC50 with L1210 and in the assay with KB were 0.08 µg/mL (≈ 0.125 µM) and 0.092 µg/mL (≈ 0.144 µM), respectively.

Broadly, the IC50 is the concentration that gives 50% inhibition.

For the origin of these results see ChEMBL document CHEMBL1150204, “Cystodytins D-I, new cytotoxic tetracyclic aromatic alkaloids from the Okinawan marine tunicate Cystodytes dellechiajei” (J Nat Prod, 1991).
